Data reported in patent US20260070921A1, “COMPOUND, ENDOPLASMIC RETICULUM STRESS INHIBITOR, PHARMACEUTICAL PRODUCT, OPHTHALMIC AGENT, EYE DROPS, COMPOSITION, AND METHOD FOR PRODUCING COMPOUND” (KYOTO UNIVERSITY, priority 2022, published 2026).

What was measured:
HEK293 cells = assay: Tunicamycin assay using an autophagy or proteasome inhibitor; assay type: cell-based; settings: pre-incubation 16 h, tunicamycin 5.0 μg/mL 48 h
Protocol: Cellular protein aggregates are often cleared by cellular mechanisms, such as autophagy and ubiquitin-proteasome system. To examine the importance of these proteolytic pathways in the activity of compounds 1 and 6, their ability to inhibit tunicamycin-induced cytotoxicity in the presence of an autophagy or proteasome inhibitor (bafilomycin A1 or MG132, respectively) was measured. FIG. 9 is a graph showing the results of a tunicamycin assay using an autophagy or proteasome inhibitor. Cells were pre-incubated with compound 1 or compound 6 for 16 hours and then treated with tunicamycin (5.0 μg/mL) in the presence or absence of a specified substance for 48 hours. FIG. 9(A) is a graph showing measurements in the presence or absence of bafilomycin A1 (Baf A1, autophagy inhibitor). FIG. 9(B) is a graph showing measurements in the presence or absence of MG132 (proteasome inhibitor). Error bars represent s.d. (n=3). Statistical analysis was performed according to the one-way ANOVA and Dunnett's test. *P<0.05; n.s.: not significant. […] The concentrations used of the inhibitors were confirmed to be non-toxic to cells (FIGS. 31 and 32). To further study the role of autophagy, autophagy-deficient atg7^−/− and p62^−/− mouse embryonic fibroblasts (MEFs) were subjected to a tunicamycin assay. FIG. 10 is a graph showing the results of the tunicamycin assay using the autophagy-deficient cells. Wild-type (wt), atg7^−/−, or p62^−/− mouse embryonic fibroblasts (MEFs) were treated with molecule 1 (100 μM) or molecule 6 (25 μM) for 18 hours and then incubated with tunicamycin (5.0 μg/mL) for 48 hours. Error bars represent s.d. (n=3). Statistical analysis was performed according to the one-way ANOVA and Dunnett's test. *P<0.05, **P<0.01. ATG7 is an E1-like enzyme important for phagophore expansion, and p62 is an autophagy receptor for ubiquitinated substrates (Reference Material 20 below). Wild-type (wt), atg7^−/−, or p62^−/− MEF cells were treated with compound 1 or compound 6 for 18 hours, followed by treatment with tunicamycin (5.0 μg/mL) for 48 hours. […] Nat Rev Mol Cell Bio 2018, 19 (6), 349-364. https://doi.org/10.1038/s41580-018-0003-4.

denatured BSA-flu = denatured BSA-flu (Bos taurus, UniProt P02769); assay: Co-assembly with fluorescently labeled BSA (BSA-flu), confocal imaging; assay type: binding; settings: 25° C. 19 h, excess unlabeled BSA 2.0 mg/mL
Protocol: To prepare denatured BSA-flu, a solution of BSA-flu (1.1 mg/mL) in PBS (pH of 7.4) was incubated at 80° C. for 1 hour. Native or denatured BSA-fluorescein (final concentration: 0.1 mg/mL) was added to a solution of compound 1 (100 μM) or compound 6 (25 μM) in PBS (pH of 7.4) containing 2.0 mg/mL BSA. The mixture was incubated at 25° C. for 19 hours and then images were taken with a CV1000 confocal microscope. The fluorescence intensity of the co-assemblies was quantified from the images obtained using ImageJ software.

luciferase = assay: Luciferase-based refolding assay in live cells; assay type: cell-based; settings: compound 1 100 μM, compound 6 25 μM, 20 h
Protocol: HEK293 cells were seeded in 96-well plates (2×10^4 cells/well) and transfected with a luciferase expression plasmid (0.1 μg/well) using FuGENE HD (Promega). […] Refolding assay was performed as described in Walther, T. V.; Maddalo, D. Intracellular Refolding Assay. J Vis Exp 2012, No. 59. https://doi.org/10.3791/3540. Briefly speaking, luciferase was denatured in live cells by incubation at 45° C. for 30 minutes in the presence of 200 mM MOPS and 20 μg/mL cycloheximide. After the denaturation step, the cells were incubated at 37° C. for various times to allow the luciferase to refold. After cells were lysed with Reporter Lysis 5× Buffer (Promega), luciferase activity was measured.

caspase 3 = assay: Western blotting of TGF-β2-induced caspase activation in iFECD; assay type: cell-based, human; settings: TGF-β2 stimulated iFECD
Protocol: In order to collect floating cells and dead cells, the medium was collected on ice, and the solution resulting from washing cells with 1×PBS(−) twice was also collected and centrifuged at 4° C. at 800 g for 12 minutes, followed by discarding the supernatant, thereby obtaining a precipitate. Proteins were extracted from the washed cells by adding a protein extraction buffer (RIPA; 50 mM Tris-HCl (pH of 7.4), 150 mM NaCl, 1 mM EDTA, 0.1% SDS, 0.5% DOC, 1% NP-40) on ice. Thereafter, the precipitate obtained after centrifugation of the floating cells and dead cells was suspended together and extracted. The collected liquid was pulverized in cold water for 30 seconds three times with an ultrasonic device (BIORUPTOR, Tosho Denki) and then centrifuged at 4° C. at 15000 rpm for 10 minutes to collect the protein supernatant.
5 to 8 μg of the extracted proteins were separated by SDS-PAGE and transferred to a nitrocellulose membrane. The primary antibodies used were rabbit anti-Caspase 3 antibody (Cell Signaling, 9662), rabbit anti-PARP antibody (Cell Signaling, 9542), and mouse anti-GAPDH antibody (MBL, M171-3). […] The intensity of the detected bands was analyzed using a LAS-4000mini lumino image analyzer (Fujifilm) and ImageQuant™ software (GE Healthcare).

Sequence of denatured BSA-flu (P02769 25-607): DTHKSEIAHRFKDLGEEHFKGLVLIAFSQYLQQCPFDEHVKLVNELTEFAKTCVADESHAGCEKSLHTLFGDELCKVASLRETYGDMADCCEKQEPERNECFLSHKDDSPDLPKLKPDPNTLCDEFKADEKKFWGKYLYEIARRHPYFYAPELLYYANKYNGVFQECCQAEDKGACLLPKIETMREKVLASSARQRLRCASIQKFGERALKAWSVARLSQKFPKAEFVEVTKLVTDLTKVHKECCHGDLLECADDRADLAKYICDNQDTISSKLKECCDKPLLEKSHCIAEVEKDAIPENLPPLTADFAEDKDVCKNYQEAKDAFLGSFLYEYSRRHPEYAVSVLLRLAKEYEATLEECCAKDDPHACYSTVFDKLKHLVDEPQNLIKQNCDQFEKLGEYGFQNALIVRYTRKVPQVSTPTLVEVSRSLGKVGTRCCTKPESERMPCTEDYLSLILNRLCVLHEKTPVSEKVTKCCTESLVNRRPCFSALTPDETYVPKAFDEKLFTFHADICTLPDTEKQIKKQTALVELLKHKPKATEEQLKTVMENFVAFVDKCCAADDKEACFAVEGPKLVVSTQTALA

Which “Activity in the presence of MG132” value (HEK293 cells) does the source give for `NS(=O)(=O)c1ccc(Nc2ccn3c(n2)nc(=O)c2sc4cc(F)ccc4c23)cc1` [compound 1] here?
Its value is “no significant effect”.

What about the “Activity in the presence of bafilomycin A1” value (HEK293 cells) of the same molecule?
Its value is “partially canceled”.

What about the “Co-assembly with native or denatured BSA-flu” value (denatured BSA-flu) of the same molecule?
Its value is “selectively formed co-assemblies with heat-denatured BSA”.

What about the Refolding of luciferase (luciferase) of the same molecule?
Its Refolding of luciferase is “slightly inhibited refolding”.

And the “Cleaved active caspase 3 (about 17 kDa)” value (caspase 3)?
The value was “hardly detected”.

With `COc1ccc2c(c1)sc1c(=O)nc3nc(Nc4ccc(S(N)(=O)=O)cc4)ccn3c12` [compound 6] as the molecule, how does the “Activity in the presence of MG132” value (HEK293 cells) read?
Its value is “no significant effect”.

What about the “Activity in the presence of bafilomycin A1” value (HEK293 cells) of the same molecule?
The value was “partially canceled”.

What about the “Co-assembly with native or denatured BSA-flu” value (denatured BSA-flu) of the same molecule?
The value was “selectively formed co-assemblies with heat-denatured BSA”.

And the Refolding of luciferase (luciferase)?
The Refolding of luciferase was “slightly inhibited refolding”.

What about the “Cleaved active caspase 3 (about 17 kDa)” value (caspase 3) of the same molecule?
The value was “hardly detected”.
